According to US20130116304A1, “TMEM195 ENCODES FOR TETRAHYDROBIOPTERIN-DEPENDENT ALKYLGLYCEROL MONOOXYGENASE ACTIVITY” (priority 2010, published 2013):
Each block holds one molecule with its values, some of them ahead of it.

Experiments:
[1] = biological target: T1, alkylglycerol monooxygenase (TMEM195) (Homo sapiens, UniProt Q6ZNB7); assay: Alkylglycerol monooxygenase activity generated in CHO cells by transfection of TMEM195 and ALDH3A2 (pyrenedecanoic acid, HPLC with fluorescence detection); assay type: biochemical; conditions: mean±SEM
T1 construct: host or cells: CHO-K1 cells, transiently transfected with ExGen 500; pellets opened in water with 0.5% CHAPS
T1 sequence (Q6ZNB7 1-445): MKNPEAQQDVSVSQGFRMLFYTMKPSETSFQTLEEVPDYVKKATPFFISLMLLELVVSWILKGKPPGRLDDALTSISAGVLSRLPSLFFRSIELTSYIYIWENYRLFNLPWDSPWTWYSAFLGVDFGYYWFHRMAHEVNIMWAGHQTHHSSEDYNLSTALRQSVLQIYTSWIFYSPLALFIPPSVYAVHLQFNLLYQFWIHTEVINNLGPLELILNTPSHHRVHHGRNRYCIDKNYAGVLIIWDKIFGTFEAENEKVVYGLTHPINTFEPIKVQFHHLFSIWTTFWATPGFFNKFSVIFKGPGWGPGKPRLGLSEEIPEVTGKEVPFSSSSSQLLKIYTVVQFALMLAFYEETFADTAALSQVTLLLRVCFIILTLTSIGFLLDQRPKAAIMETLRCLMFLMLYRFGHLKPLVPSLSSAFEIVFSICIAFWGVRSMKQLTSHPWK
Description: A pyrene-labelled alkylglycerol (1-O-pyrenedecyl-sn-glycerol) was used as substrate which was converted to pyrenedecanal by alkylglycerol monooxygenase. […] The reaction was started by addition of the protein and incubated for 60 min at 37° C. in the dark. Negative controls without protein (concentration of pyrenedecanoic acid <1 nM) and rat liver microsomes as positive controls were always run in parallel. After addition of 30 μl methanol and centrifugation for 5 min at 16,000 g, 10 μl of the sample were injected to a Zorbax XDB-C8 rapid resolution column (Agilent Technologies, Vienna, Austria) using an Agilent 1200 Series HPLC system. […] Pyrenedecanoic acid was detected by fluorescence (340 nm excitation and 400 nm emission, detection limit 1 nM).
80,000 Chinese hamster ovary Ki cells (CHO-K1, LGC Promochem, Wesel, Germany) were transfected with 1 μg of expression plasmids or plasmid pools using the ExGen 500 transfection agent (Fermentas, St. Leon-Rot, Germany) and standard protocols. […] For control of transfection efficiency, a plasmid encoding enhanced green fluorescent protein (pEGFP-N1, Clonetech, Mountain View, Calif., USA) was used and fluorescence quantified directly in the culture plates by a Typhoon 9410 scanner (GE Healthcare). […] Alkylglycerol monooxygenase activity (22) and fatty aldehyde dehydrogenase activity (31) were then determined as described.

[2] = biological target: T2, alkylglycerol monooxygenase (Rattus norvegicus, UniProt A0JPQ8); conditions: rat liver microsomes; from reference (22); cited from earlier work
T2 construct: those found in rat liver microsomes (KM 8.90 μM for 1-O-pyrenedecylglycerol); from tissue; host or cells: rat liver microsomes
T2 sequence (A0JPQ8 1-447): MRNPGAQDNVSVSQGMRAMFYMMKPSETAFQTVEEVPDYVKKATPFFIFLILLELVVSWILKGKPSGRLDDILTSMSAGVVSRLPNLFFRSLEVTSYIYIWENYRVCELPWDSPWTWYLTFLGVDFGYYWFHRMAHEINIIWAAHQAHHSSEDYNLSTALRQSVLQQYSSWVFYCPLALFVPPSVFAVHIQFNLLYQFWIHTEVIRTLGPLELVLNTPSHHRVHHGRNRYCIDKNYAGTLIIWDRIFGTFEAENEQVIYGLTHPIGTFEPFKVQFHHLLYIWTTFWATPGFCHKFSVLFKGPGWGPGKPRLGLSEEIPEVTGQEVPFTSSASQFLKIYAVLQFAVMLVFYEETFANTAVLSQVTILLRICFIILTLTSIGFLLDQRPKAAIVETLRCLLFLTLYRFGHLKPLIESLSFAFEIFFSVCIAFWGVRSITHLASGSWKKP

[3] = substrate: C[C@H](O)[C@H](O)[C@H]1CNc2nc(N)[nH]c(=O)c2N1; assay: purified protein, by the assay type; conditions: other: activity generated in CHO cells by transfection of TMEM195 and ALDH3A2; KM for substrate or cofactor; mean±SEM; 37.0 °C

Molecule: C[C@H](O)[C@H](O)[C@H]1CNc2nc(N)[nH]c(=O)c2N1 [tetrahydrobiopterin]
Km [2]: 2.6 µM

B1: alkylglycerol monooxygenase (TMEM195) (Homo sapiens) (protein)
chain: T1 sequence (Q6ZNB7 1-445)
Km [3]: 2.58 ± 0.42 µM

Now from value to molecule, other results behind:

Km ([1]; activity generated in CHO cells by transfection of TMEM195 and ALDH3A2, KM for substrate or cofactor, read-out: Michaelis Menten constant (KM)): 11 ± 1.1 µM
Molecule: OC[C@H](O)COCCCCCCCCCCc1ccc2ccc3cccc4ccc1c2c34 [1-O-pyrenedecylglycerol, 1-O-pyrenedecyl-sn-glycerol]
Km [2]: 8.9 µM

IC50 ([1]; activity generated in CHO cells by transfection, read-out: 50% inhibition of alkylglycerol monooxygenase activity): 1390 ± 380 nM
Molecule: c1cnc2c(c1)ccc1cccnc12 [1,10-Phenanthroline]
